This is an account of results in publication PMC3315146 (The Journal of General Physiology, 2012).

Residue numbers refer to the chain shown, from its start.

Experiment [1] concerns the target T1, wt-Kcv (Paramecium bursaria Chlorella virus 1, UniProt Q84568).
T1 sequence (Q84568 1-94): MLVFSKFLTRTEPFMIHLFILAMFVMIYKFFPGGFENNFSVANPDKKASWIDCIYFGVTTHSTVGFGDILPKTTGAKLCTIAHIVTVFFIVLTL
As to the kind of experiment: MTSET control, single-channel conductance of wt-Kcv. To be noted: 0.2 mM cis MTSET. The experiment is classed as biochemical, chlorella virus PBCV-1.

The target in experiment [2] is T2, Kcv L70C (Paramecium bursaria Chlorella virus 1, UniProt Q84568, L70C).
T2 sequence (Q84568 1-94 L70C): T1 sequence (Q84568 1-94) with L70C
As to the kind of experiment: MTSET cysteine modification, single-channel conductance of L70C. It is filed as biochemical, chlorella virus PBCV-1. The settings on record: for conductance reduced by: L70C, 0.2 mM cis MTSET for 5 min.

Experiment [3] concerns KcsA Y82C. The settings on record: reverse direction unchanged, ref Heginbotham et al., 1999; cited from earlier work.

In the case of `C[N+](C)(C)CCSS(C)(=O)=O` [MTSET, (2-(trimethylammonium)ethyl) methanethiosulfonate], the conductance change result in experiment [1] is reported as “did not observe the conductance change”. The “conductance reduced by” value came to 30% in experiment [2] (60 mV) and 78% in experiment [2] (−60 mV). Moreover, the effect on conductance result in experiment [2] (MTSET added in the trans solution (not depicted)) is recorded as “not found to reduce the conductance”. The “reduction of cis to trans current” value in experiment [3] is given as 60%.
